Test results as given in publication PMC8857453 (Biotechnology Reports, 2022).
Like-named read-outs stand apart in the source and are kept apart here.

How the values were obtained:
Aps-t [1] = system: Aps-t
Aps-t [2] = details: 50 mM MES pH 6, 100 mM NaCl, 1 mM MgCl2, 37 °C; pNPP stock in 0.1 M sodium acetate pH 4.5

Row | Km (Aps-t [1]) | Km (Aps-t [2]) | SMILES
1 | 190 ± 10 µM | – | Nc1ncnc2c1ncn2[C@@H]1O[C@H](COP(=O)(O)OP(=O)(O)O)[C@@H](O)[C@H]1O [ADP]
2 | 270 ± 20 µM | – | Nc1ncnc2c1ncn2[C@@H]1O[C@H](COP(=O)(O)O)[C@@H](O)[C@H]1O [AMP]
3 | 1000 ± 120 µM | – | Nc1ncnc2c1ncn2[C@@H]1O[C@H](COP(=O)(O)OP(=O)(O)OP(=O)(O)O)[C@@H](O)[C@H]1O [ATP]
4 | – | 94 ± 14 µM | O=[N+]([O-])c1ccc(OP(=O)(O)O)cc1 [pNPP]
